PubChem BioAssay AID256 (DTP/NCI, 2004)
Inconclusive results and toxic doses are left out. The calls were made as follows: active = survival T/C of 150% or more; inactive = T/C below 125% in these data.

System: CD2F1 mice, L1210 leukemia ip, survival T/C
Test: NCI In Vivo Anticancer Drug Screen. Data for tumor model L1210 Leukemia (intraperitoneal) in CD2F1 (CDF1) mice
Settings: higher = longer survival
Procedure, shortened: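 Antitumor effect is scored in animals hosting a serially transplanted tumor. Values compare compound-dosed animals against vehicle-only controls as a simple quotient.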

[1] = endpoint: mean survival time, dose: 25.0 mg/kg/injection, schedule: Q01DX009 (ip), vehicle: saline
[2] = endpoint: mean survival time, dose: 50.0 mg/kg/injection, schedule: Q01DX009 (ip), vehicle: saline
[3] = endpoint: mean survival time, dose: 100.0 mg/kg/injection, schedule: Q01DX009 (ip), vehicle: saline

Measured: T/C

Cc1cc(O)c(N=Nc2ccc(C(=O)O)cc2)cc1C
inactive: endpoint: mean survival time, dose: 12.5 mg/kg/injection, schedule: Q01DX009 (ip), vehicle: saline 106 % of control | endpoint: mean survival time, dose: 12.5 mg/kg/injection, schedule: Q01DX009 (ip), vehicle: suspension in saline 97 % of control | [1] 110 % of control | endpoint: mean survival time, dose: 25.0 mg/kg/injection, schedule: Q01DX009 (ip), vehicle: suspension in saline 101 % of control | [2] 111 % of control | endpoint: mean survival time, dose: 50.0 mg/kg/injection, schedule: Q01DX009 (ip), vehicle: suspension in saline 95 % of control | [3] 94 % of control | endpoint: mean survival time, dose: 100.0 mg/kg/injection, schedule: Q01DX009 (ip), vehicle: suspension in saline 94 % of control | endpoint: mean survival time, dose: 200.0 mg/kg/injection, schedule: Q01DX009 (ip), vehicle: suspension in saline 97 % of control | endpoint: mean survival time, dose: 400.0 mg/kg/injection, schedule: Q01DX009 (ip), vehicle: saline 93 % of control | endpoint: mean survival time, dose: 400.0 mg/kg/injection, schedule: Q01DX009 (ip), vehicle: suspension in saline 101 % of control

c1ccc(C2CC([P+](c3ccccc3)(c3ccccc3)c3ccccc3)=NN2)cc1 (centres undefined)
inactive: endpoint: mean survival time, dose: 2.7 mg/kg/injection, schedule: Q01DX009 (ip), vehicle: Klucel (hydroxypropylcellulose) (HPC) 110 % of control | endpoint: mean survival time, dose: 4.1 mg/kg/injection, schedule: Q01DX009 (ip), vehicle: Klucel (hydroxypropylcellulose) (HPC) 112 % of control | endpoint: mean survival time, dose: 5.5 mg/kg/injection, schedule: Q04DX003 (ip), vehicle: Klucel (hydroxypropylcellulose) (HPC) 106 % of control | endpoint: mean survival time, dose: 6.25 mg/kg/injection, schedule: Q01DX009 (ip), vehicle: Klucel (hydroxypropylcellulose) (HPC) 108 % of control | endpoint: mean survival time, dose: 8.2 mg/kg/injection, schedule: Q04DX003 (ip), vehicle: Klucel (hydroxypropylcellulose) (HPC) 106 % of control | endpoint: mean survival time, dose: 9.3 mg/kg/injection, schedule: Q01DX009 (ip), vehicle: Klucel (hydroxypropylcellulose) (HPC) 110 % of control | endpoint: mean survival time, dose: 11.0 mg/kg/injection, schedule: Q04DX002 (ip), vehicle: Klucel (hydroxypropylcellulose) (HPC) 102 % of control | endpoint: mean survival time, dose: 12.5 mg/kg/injection, schedule: Q04DX003 (ip), vehicle: Klucel (hydroxypropylcellulose) (HPC) 104 % of control | endpoint: mean survival time, dose: 14.0 mg/kg/injection, schedule: Q01DX009 (ip), vehicle: Klucel (hydroxypropylcellulose) (HPC) 102 % of control | endpoint: mean survival time, dose: 16.0 mg/kg/injection, schedule: Q04DX002 (ip), vehicle: Klucel (hydroxypropylcellulose) (HPC) 95 % of control | endpoint: mean survival time, dose: 18.0 mg/kg/injection, schedule: Q04DX003 (ip), vehicle: Klucel (hydroxypropylcellulose) (HPC) 108 % of control | endpoint: mean survival time, dose: 22.0 mg/kg/injection, schedule: Q01DX001 (ip), vehicle: Klucel (hydroxypropylcellulose) (HPC) 104 % of control | endpoint: mean survival time, dose: 25.0 mg/kg/injection, schedule: Q04DX002 (ip), vehicle: Klucel (hydroxypropylcellulose) (HPC) 102 % of control | endpoint: mean survival time, dose: 28.0 mg/kg/injection, schedule: Q04DX003 (ip), vehicle: Klucel (hydroxypropylcellulose) (HPC) 108 % of control | endpoint: mean survival time, dose: 35.0 mg/kg/injection, schedule: Q01DX001 (ip), vehicle: Klucel (hydroxypropylcellulose) (HPC) 110 % of control | endpoint: mean survival time, dose: 35.0 mg/kg/injection, schedule: Q04DX002 (ip), vehicle: Klucel (hydroxypropylcellulose) (HPC) 96 % of control | endpoint: mean survival time, dose: 55.0 mg/kg/injection, schedule: Q04DX002 (ip), vehicle: Klucel (hydroxypropylcellulose) (HPC) 104 % of control

COC1CC(C)C(OC)c2cc(O)cc(c2O)NC(=O)/C(C)=C/C=C\C(C)C(OC(N)=O)/C(C)=C\C(C)C1OC (centres undefined)
inactive: endpoint: median survival time, dose: 1.25 mg/kg/injection, schedule: Q01DX009 (ip), vehicle: saline + alcohol 105 % of control | endpoint: median survival time, dose: 2.5 mg/kg/injection, schedule: Q01DX009 (ip), vehicle: saline + alcohol 105 % of control | endpoint: median survival time, dose: 5.0 mg/kg/injection, schedule: Q01DX009 (ip), vehicle: saline + alcohol 105 % of control | endpoint: median survival time, dose: 10.0 mg/kg/injection, schedule: Q01DX009 (ip), vehicle: saline + alcohol 110 % of control | endpoint: median survival time, dose: 20.0 mg/kg/injection, schedule: Q01DX009 (ip), vehicle: saline + alcohol 107 % of control

CN(Cc1cnc2nc(N)nc(N)c2n1)c1ccc(C(=O)NC(CCC(=O)NCc2ccccc2)C(=O)O)cc1 (centres undefined)
inactive: endpoint: mean survival time, dose: 5.0 mg/kg/injection, schedule: Q01DX009 (ip), vehicle: sodium bicarbonate 108 % of control | endpoint: mean survival time, dose: 10.0 mg/kg/injection, schedule: Q01DX009 (ip), vehicle: sodium bicarbonate 112 % of control

O=C(CCN1CC1)NCCCCCCCCNC(=O)CCN1CC1
inactive: endpoint: mean survival time, dose: 22.0 mg/kg/injection, schedule: Q01DX001 (ip), vehicle: carboxymethylcellulose (CMC) 101 % of control | endpoint: mean survival time, dose: 33.0 mg/kg/injection, schedule: Q01DX001 (ip), vehicle: carboxymethylcellulose (CMC) 112 % of control | endpoint: mean survival time, dose: 50.0 mg/kg/injection, schedule: Q01DX001 (ip), vehicle: carboxymethylcellulose (CMC) 113 % of control

CNC(=O)CCl
inactive: [1] 103 % of control | [2] 105 % of control | [3] 104 % of control

Cc1cc(CSc2ssc(=S)c2-c2ccccc2)c(CSc2ssc(=S)c2-c2ccccc2)cc1C
inactive: endpoint: mean survival time, dose: 100.0 mg/kg/injection, schedule: Q01DX001 (ip), vehicle: saline with Tween-80 98 % of control | endpoint: mean survival time, dose: 200.0 mg/kg/injection, schedule: Q01DX001 (ip), vehicle: saline with Tween-80 98 % of control | endpoint: mean survival time, dose: 400.0 mg/kg/injection, schedule: Q01DX001 (ip), vehicle: saline with Tween-80 97 % of control
